Target: T1, BRAF (Homo sapiens, UniProt P15056)
T1 construct: purchased Thermo Fisher Scientific (Life Technologies) SelectScreen
Experiment: SelectScreen Z'LYTE
Format: biochemical
Conditions: ATP 100 µM
Summary of the method: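 Percent values come from Thermo SelectScreen profiling of NU5455, combining activity and binding assays. CSF1R was run in Z'LYTE format at Km app ATP, and CAMK1 in Adapta format with ATP listed at 10.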

T1 sequence (P15056 whole entry): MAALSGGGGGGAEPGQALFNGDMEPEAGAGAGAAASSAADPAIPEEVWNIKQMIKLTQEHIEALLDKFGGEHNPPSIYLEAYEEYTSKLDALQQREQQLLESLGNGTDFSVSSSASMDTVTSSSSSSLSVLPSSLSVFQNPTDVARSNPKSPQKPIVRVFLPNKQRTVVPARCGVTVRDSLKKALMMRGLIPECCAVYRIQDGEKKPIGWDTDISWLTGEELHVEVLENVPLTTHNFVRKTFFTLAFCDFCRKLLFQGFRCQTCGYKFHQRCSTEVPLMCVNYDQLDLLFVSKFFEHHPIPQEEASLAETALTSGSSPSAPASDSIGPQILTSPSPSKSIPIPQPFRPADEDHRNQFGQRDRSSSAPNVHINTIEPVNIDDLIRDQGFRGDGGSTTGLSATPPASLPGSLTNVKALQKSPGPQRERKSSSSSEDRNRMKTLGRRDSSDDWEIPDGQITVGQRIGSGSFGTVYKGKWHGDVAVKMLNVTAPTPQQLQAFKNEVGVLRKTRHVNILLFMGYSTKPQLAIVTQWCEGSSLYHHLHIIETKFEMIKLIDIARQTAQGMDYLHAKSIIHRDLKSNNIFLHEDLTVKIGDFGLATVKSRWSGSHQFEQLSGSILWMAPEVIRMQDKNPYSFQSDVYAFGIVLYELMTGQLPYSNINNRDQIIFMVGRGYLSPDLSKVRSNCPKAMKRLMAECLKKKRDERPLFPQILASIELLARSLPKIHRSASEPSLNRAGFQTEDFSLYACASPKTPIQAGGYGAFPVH

`CN(C(=O)CN1CCOCC1)c1ccc2sc3c(-c4cccc5c(=O)cc(N6CC7CCC(C6)O7)oc45)cccc3c2c1` [NU5455] showed an inhibition at 1 µM of 9.9%.

Reference: article PMC6934184, “Selective DNA-PKcs inhibition extends the therapeutic index of localized radiotherapy and chemotherapy” (The Journal of Clinical Investigation, 2019)
